BigSolDB 2.1

O=Cc1ccc(C(=O)O)cc1
solubility (mole fraction)
Conditions	283.15 K	288.15 K	293.15 K	298.15 K	303.15 K	308.15 K	313.15 K	318.15 K	323.15 K
in NMP	0.0654	0.0767	0.0897	0.104	0.121	0.14	0.161	0.184	0.211
in ethanol	0.00815	0.00973	0.0115	0.0134	0.0155	0.0181	0.0211	0.0246	0.028
in isopropanol	0.00498	0.00612	0.00727	0.00867	0.0103	0.0121	0.014	0.0163	0.0185
in methanol	0.00781	0.00899	0.00999	0.0115	0.0129	0.0144	0.0163	0.0178	0.02
in water	2.15e-05	2.83e-05	3.61e-05	4.64e-05	5.91e-05	7.67e-05	9.57e-05	0.00012	0.000148
